Test results reported in patent US11497819B2, “PSMA ligands for imaging and endoradiotherapy” (priority 2017, dated 2022).
Several values for one entry are separate records, joined by “and”; a condition that tells them apart may be missing. Identical values can stand only once. Like-named read-outs stand apart in the source and are kept apart here.

Assays:
[1] = tested on: LNCaP cells; assay: Internalization into LNCaP cells, relative cellular uptake to ([^125I]I-BA)KuE; format: cell-based; conditions: c = 1.0 nM ^177Lu-labeled inhibitor, 37° C., 60 min, corrected for non-specific binding (10 μM 2-PMPA), mean ± SD (n = 3)
Description: PSMA-positive LNCAP cells (300265; Cell Lines Service GmbH) were cultivated in Dulbecco modified Eagle medium/Nutrition Mixture F-12 (1/1) (DMEM-F12, Biochrom) supplemented with fetal calf serum (FCS) (10%, Biochrom) and kept at 37° C. in a humidified CO2 atmosphere (5%). One day (24 h±2 h) prior to all experiments with LNCaP cells, the cultivated cells were harvested using a mixture of trypsin/ethylendiaminetetraacetate (0.05%/0.02%) and PBS and centrifuged. After centrifugation, the supernatant was disposed and the cell pellet resuspended in culture medium. Afterwards, cells were counted with a hemocytometer (Neubauer) and seeded in 24-well plates.
Subsequent to the removal of the culture medium, the cells were washed once with DMEM-F12-solution (500 μL, 5% BSA) and left to equilibrate for at least 15 min at 37° C. in DMEM-F12-solution (200 μL, 5% BSA). Afterwards, each well was treated with either DMEM-F12-solution (25 μL, 5% BSA) or 2-PMPA-solution (25 μL, 100 μm) for blockade. […] The experiment was terminated by placing the 24-well plate on ice for 3 min and the consecutive removal of the medium. Each well was rinsed with HBSS (250 μL) and the fractions from these first two steps combined, representing the amount of free radioligand. Removal of surface bound activity was accomplished by incubation of the cells with ice-cold 2-PMPA-solution (250 μL, 10 μm in PBS) for 5 min and subsequent rinsing with ice-cold PBS (250 μL). The internalized activity was determined through incubation of the cells in NaOH (250 μL, 1.0 m) and the combination with the fraction of the subsequent washing step with again NaOH (250 μL, 1.0 m). Each experiment (control and blockade) was performed in triplicate for each time point. Free, surface bound and internalized activity was quantified in a γ-counter.

[2] = tested on: LNCaP cells; assay: Externalization kinetics / cell retention in LNCaP cells; format: cell-based; conditions: 60 min incubation, ^177Lu-labeled
Description: FIG. 2: Externalization kinetics of selected ^177Lu-labeled PSMA inhibitors from LNCaP cells. […] Then, the supernatant was removed and once washed with DMEM-solution (5% BSA, 37° C.). Afterwards, either A) only DMEM-solution (5% BSA) or B) blockade DMEM-solution (5% BSA, 10 μm 2-PMPA) were added for replacement. The total cellular internalized activity at t=0 min was corrected for non-specific binding (10 μm 2-PMPA) and normalized to 100%. All data are expressed as mean±SD (n=3).
Externalization kinetics of the radiolabeled PSMA inhibitors were determined using LNCaP cells, which were similarly prepared as described for the internalization assay. After an initial cell-washing step with DMEM-F12-solution (5% BSA), the cells were left to recondition for at least 15 min at 37° C. Subsequently, the LNCaP cells were incubated with the respective radiolabeled peptide (25 μL, 10.0 nm) at 37° C. for 60 min in a total volume of 250 μL in each well. After 60 min, the supernatant with the unbound free fraction was removed and measured in a γ-counter for the calculation of total added radioactivity. An acid wash step was avoided to warrant enzyme integrity during the following externalization and recycling study. To determine the recycling rate, fresh DMEM-F12-solution (250 μL, 5% BSA) was given to the cells to allow re-internalization. In contrast, re-internalization was inhibited by addition of DMEM-F12-solution containing 2-PMPA (225 μL DMEM-F12 (5% BSA) and 25 μL of 100 μm 2-PMPA-solution (PBS)). The cells were then incubated for 0, 20, 40 and 60 min at 37° C. Consequently, the supernatant was removed and the cells were washed with ice-cold HBSS (250 μL). The combination of the supernatant and the volume of the concomitant washing step with HBSS (200 μL) account for externalized radioligand at the investigated time point. Further, the cells were then washed with ice-cold 2-PMPA HBSS solution (250 μL, 10 μm) twice, combined and thus represented the fraction of membrane-bound radioligand. The determination of the internalized fraction was achieved by lysis as described for the internalization assay with NaOH (250 μL, 1.0 m). The activities of free, externalized, membrane-bound and internalized radioligand were quantified in a γ-counter.

[3] = tested on: LNCaP-tumor xenograft; assay: Biodistribution in LNCaP-tumor xenograft bearing CB-17 SCID mice; format: in vivo
Description: All animal experiments were carried out in accordance with the general animal welfare regulations in Germany (Deutsches Tierschutzgesetz, approval #55.2-1-54-2532-71-13). For the tumor model, LNCaP cells (approx. 10^7 cells) were suspended in serum-free DMEM-F12 medium and Matrigel (1/1; v/v) (BD Biosciences, Germany) and inoculated onto the right shoulder of male, 6 to 8 weeks old CB-17 SCID mice (Charles River Laboratories, Sulzfeld, Germany). Animals were used after the tumor size reached 4 to 8 mm in diameter for experiments.

[4] = Lipophilicity, logP in n-octanol/PBS of radiolabeled PSMA inhibitors; format: physicochemical; conditions: pH 7.4
Description: The radiolabeled PSMA inhibitor (0.5 to 1.0 MBq) dissolved in PBS (500 μL, pH=7.4), was added to n-octanol (500 μL) in a reaction vial (1.5 mL), which was rigorously vortexed for 3 min (n=6). For quantitative phase separation, the mixture was centrifuged at 6,000 g for 5 min (Biofuge 15, Heraus Sepatech, Osterode, Germany). The activity from samples of each phase (100 μL) were measured in a γ-counter to obtain the log P(o/w) value.

[5] = target: T1, HSA (Homo sapiens, UniProt P02768); assay: HSA binding on Chiralpak HSA column; format: in vitro ADME; conditions: human, 0.5 mg/mL
T1 construct: purchased Daicel Chemical Industries / Chiral Technologies Europe (Illkirch, France)
Description: HSA binding experiments were performed as previously described. […] For each run, 10 μL of the solution containing the inhibitor was injected into the RP-HPLC system and the retention time measured. […] Non-linear regression was established with OriginPro 2016G.

[6] = 1 h p.i., ^177Lu-labeled, n = 4
[7] = 1 h p.i., ^177Lu-labeled, n = 4, listed as [^177Lu]PSMA I&T
[8] = 24 h p.i., ^177Lu-labeled, n = 4
[9] = male, CB-17 SCID, mouse, in vivo, 1 h
[10] = male, CB-17 SCID, mouse, in vivo, 24 h

T1 sequence (P02768 25-609): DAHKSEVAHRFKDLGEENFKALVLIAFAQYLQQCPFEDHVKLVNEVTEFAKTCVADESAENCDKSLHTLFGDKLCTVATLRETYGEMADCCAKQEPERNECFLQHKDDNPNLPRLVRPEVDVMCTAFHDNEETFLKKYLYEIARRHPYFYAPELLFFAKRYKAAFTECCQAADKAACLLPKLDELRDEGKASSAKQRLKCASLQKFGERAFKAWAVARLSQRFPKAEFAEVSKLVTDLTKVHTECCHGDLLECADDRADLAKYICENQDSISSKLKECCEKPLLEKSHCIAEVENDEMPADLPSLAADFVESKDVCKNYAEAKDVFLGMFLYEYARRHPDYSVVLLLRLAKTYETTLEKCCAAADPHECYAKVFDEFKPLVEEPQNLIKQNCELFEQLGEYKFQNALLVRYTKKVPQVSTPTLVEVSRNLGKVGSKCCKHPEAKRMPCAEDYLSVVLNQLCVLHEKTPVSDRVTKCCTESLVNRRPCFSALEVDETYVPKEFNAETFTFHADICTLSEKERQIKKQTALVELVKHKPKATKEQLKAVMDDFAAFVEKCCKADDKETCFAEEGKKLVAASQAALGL

In the case of `O=C(O)CC[C@H](NC(=O)N[C@@H](CCCCNC(=O)CCCCCCC(=O)NCCCC[C@@H](NC(=O)[C@@H](Cc1ccccc1)NC(=O)[C@@H](Cc1ccc(O)c(I)c1)NC(=O)CCC(C(=O)O)N1CCN(CC(=O)O)CCN(CC(=O)O)CCN(CC(=O)O)CC1)C(=O)O)C(=O)O)C(=O)O` (some centres unmarked) [PSMA I&T, DOTAGA-y(3-I)fk(Sub-KuE), reference compound], the Internalization ([1]; listed as [^177Lu]PSMA I&T) is reported as 75.5±1.6%, the Internalization ([1]; listed as [^nat/177Lu]PSMA I&T) is reported as 75.5 ± 1.6% and the “in vitro tumor cell retention” value [2] is reported as 62.8±0.4%. The adrenal gland [3, 6] was 6.25 ± 2.59 % ID/g, the blood [3, 6] was 0.37 ± 0.10 % ID/g and the bone [3, 6] was 0.14 ± 0.04 % ID/g. For the same molecule, the brain [3, 6] was 0.03 ± 0.01 % ID/g, the heart [3, 6] was 0.58 ± 0.15 % ID/g and the intestine [3, 6] was 0.59 ± 0.50 % ID/g. The liver [3, 6] was 0.37 ± 0.10 % ID/g, the lung [3, 6] was 1.32 ± 0.45 % ID/g and the muscle [3, 6] was 0.18 ± 0.07 % ID/g. It also gave a pancreas [3, 6] of 1.30 ± 1.39 % ID/g, a spleen [3, 6] of 13.8 ± 4.59 % ID/g and a stomach [3, 6] of 0.29 ± 0.06 % ID/g. For the same molecule, the kidney [3, 7] was 128.9±10.7 % ID/g and 128.90 ± 10.74 % ID/g, the tumor [3, 7] was 4.7±1.0 % ID/g and 4.69±0.95 % ID/g and the adrenal g. [3, 8] was 1.06 ± 0.24 % ID/g. For the same molecule, the blood [3, 8] was 0.012 ± 0.01 % ID/g, the bone [3, 8] was 0.01 ± 0.01 % ID/g and the brain [3, 8] was 0.02 ± 0.01 % ID/g. It also gave a heart [3, 8] of 0.05 ± 0.03 % ID/g, an intestine [3, 8] of 0.12 ± 0.06 % ID/g and a liver [3, 8] of 0.05 ± 0.01 % ID/g. It also gave a lung [3, 8] of 0.16 ± 0.03 % ID/g, a muscle [3, 8] of 0.01 ± 0.01 % ID/g and a pancreas [3, 8] of 0.05 ± 0.02 % ID/g. It also gave a spleen [3, 8] of 1.94 ± 1.01 % ID/g, a stomach [3, 8] of 0.05 ± 0.02 % ID/g and a tumor ([3]; 24 h p.i., ^177Lu-labeled, n = 4, listed as [^177Lu]PSMA I&T) of 4.06±1.12 % ID/g. It also gave a logP ([4]; distribution coefficient in n-octanol/PBS, radiolabeled inhibitor, mean ± SD (n = 6), read-out: logP) of -4.12 ± 0.11.

With `Nc1ccc(C[C@H](NC(=O)CCC(C(=O)O)N2CCN(CC(=O)O)CCN(CC(=O)O)CCN(CC(=O)O)CC2)C(=O)N[C@H](Cc2ccc(O)cc2)C(=O)N[C@H](Cc2ccc3ccccc3c2)C(=O)N[C@H](CCCCNC(=O)[C@@H](CC(=O)NCCC[C@@H](NC(=O)CC[C@H](NC(=O)N[C@@H](CCC(=O)O)C(=O)O)C(=O)O)C(=O)O)NC(=O)c2cc(C(=O)O)cc(C(=O)O)c2)C(=O)O)cc1` (some centres unmarked) [PSMA-62, DOTAGA-F(4-NH2)y-2-nal-k(d[N^5-orn-C^4-EuE]-TMA)] the Internalization ([1]; listed as [^177Lu]PSMA-62) was 343.9%, the Internalization ([1]; listed as [^nat/177Lu]PSMA-62) was 343.9 ± 6.0% and the “HSA (albumin binding)” value [5] was greater than 91.0%. The adrenal gland [3, 9] was 1.92 ± 0.80 % ID/g, the blood [3, 9] was 0.52 ± 0.03 % ID/g and the bone [3, 9] was 0.30 ± 0.08 % ID/g. It also gave a brain [3, 9] of 0.03 ± 0.01 % ID/g, a heart [3, 9] of 0.58 ± 0.06 % ID/g and an intestine [3, 9] of 0.49 ± 0.25 % ID/g. For the same molecule, the liver [3, 9] was 0.37 ± 0.04 % ID/g, the lung [3, 9] was 0.87 ± 0.11 % ID/g and the muscle [3, 9] was 0.12 ± 0.03 % ID/g. It also gave a pancreas [3, 9] of 0.18 ± 0.05 % ID/g, a spleen [3, 9] of 4.62 ± 1.81 % ID/g and a stomach [3, 9] of 0.51 ± 0.2 % ID/g. For the same molecule, the tumor [3, 9] was 8.00 ± 0.78 % ID/g, the tumor/blood [3, 9] was 15.4 and the tumor/kidney [3, 9] was 0.08. The tumor/muscle [3, 9] was 66.7, the adrenal g. [3, 10] was 0.04 ± 0.02 % ID/g and the blood [3, 10] was 0.004 ± 0.001 % ID/g. It also gave a bone [3, 10] of 0.04 ± 0.006 % ID/g, a brain [3, 10] of 0.01 ± 0.006 % ID/g and a heart [3, 10] of 0.02 ± 0.01 % ID/g. The intestine [3, 10] was 0.03 ± 0.02 % ID/g, the liver [3, 10] was 0.17 ± 0.07 % ID/g and the lung [3, 10] was 0.03 ± 0.02 % ID/g. For the same molecule, the muscle [3, 10] was 0.007 ± 0.001 % ID/g, the pancreas [3, 10] was 0.01 ± 0.002 % ID/g and the spleen [3, 10] was 0.09 ± 0.06 % ID/g. The stomach [3, 10] was 0.03 ± 0.01 % ID/g, the t/blood [3, 10] was 1925.0 and the t/kidney [3, 10] was 1.5. For the same molecule, the t/liver [3, 10] was 45.3, the t/muscle [3, 10] was 1100.0 and the tumor [3, 10] was 7.70 ± 1.35 % ID/g. It also gave a logP [4] of -4.12 ± 0.05.

For `O=C(O)CC[C@H](NC(=O)N[C@@H](CCC(=O)NC(CCCNC(=O)C[C@@H](NC(=O)c1cc(C(=O)O)cc(C(=O)O)c1)C(=O)NCCCC[C@@H](NC(=O)[C@@H](Cc1ccc2ccccc2c1)NC(=O)[C@@H](Cc1ccc(O)cc1)NC(=O)[C@H](Cc1ccc2ccccc2c1)NC(=O)CCC(C(=O)O)N1CCN(CC(=O)O)CCN(CC(=O)O)CCN(CC(=O)O)CC1)C(=O)O)C(=O)O)C(=O)O)C(=O)O` (some centres unmarked) [PSMA-71, DOTAGA-2-Nal-y-2-nal-k(d[N^5-orn-C^4-EuE]-TMA)], the Internalization ([1]; listed as [^177Lu]PSMA-71) was 206.8±1.7%, the Internalization ([1]; listed as [^nat/177Lu]PSMA-71) was 206.8 ± 1.7% and the “HSA (albumin binding)” value [5] was 98.2%. It also gave an adrenal g. [3, 10] of 0.32 ± 0.15 % ID/g, a blood [3, 10] of 0.008 ± 0.001 % ID/g and a bone [3, 10] of 0.04 ± 0.02 % ID/g. For the same molecule, the brain [3, 10] was 0.01 ± 0.002 % ID/g, the heart [3, 10] was 0.07 ± 0.01 % ID/g and the intestine [3, 10] was 0.27 ± 015 % ID/g. The liver [3, 10] was 0.38 ± 0.14 % ID/g, the lung [3, 10] was 0.05 ± 0.01 % ID/g and the muscle [3, 10] was 0.01 ± 0.001 % ID/g. The pancreas [3, 10] was 0.15 ± 0.15 % ID/g, the spleen [3, 10] was 0.27 ± 0.15 % ID/g and the stomach [3, 10] was 0.20 ± 0.10 % ID/g. The t/blood [3, 10] was 1786.3, the t/kidney [3, 10] was 0.4 and the t/liver [3, 10] was 37.6. The t/muscle [3, 10] was 1429.0, the tumor ([3]; mouse, in vivo) was “highest tumor uptake” and the logP [4] was -4.13 ± 0.09.
